{"source": "patent US6391324B1", "about": "“Cosmetic skin care compositions containing pulegone” (Unilever Home & Personal Care USA, Division of Conopco, priority 2000, dated 2002)", "assay_type_in_all_cases": "cell-based", "key": {"human keratinocytes [1]": {"test_system": "human keratinocytes", "test": "Glucose Uptake Assay (3H 2-deoxy-glucose)", "conditions": "for GLUCOSE UPTAKE % of CONTROL / GLUCOSE UPTAKE (cpm/μg PROTEIN ± S.D.): 4 hours preincubation", "description": "(§1) Normal human keratinocytes, isolated from neonatal foreskin by trypsin treatment, were grown in Dulbecco's Modified Eagle's Medium (DMEM, Life Technologies, Grand Island, N.Y.) with 10% fetal bovine serum in the presence of irradiated mouse fibroblasts for establishing dividing keratinocyte colonies. Cells were incubated until their second passage and stored at −70° C. for future use. All incubations took place at 37° C. with 5% CO2. Frozen second passage keratinocytes were thawed and plated in T-175 flasks (Corning, Corning, N.Y.) with DMEM and grown for five days. After reaching 80% confluence, they were trypsinized and seeded into 6-well plates containing keratinocyte growth medium (KGM, Clonetics, San Diego, Calif.) with 0.15 mM calcium.\nA sample of the keratinocytes grown in the keratinocyte culture described above, were plated in KGM medium at either 0.5 or 1 million cells/plate in six well plates and incubated for 4 days. The medium was then aspirated, and the wells were rinsed twice with Phosphate Buffered Saline (PBS), then the plates were incubated (1 mL/well) for 24 hours. The medium was replaced with fresh KBM, 10 μl of corn oil containing pulegone at various concentrations were added and cells were allowed to incubate (for 4 hours at 37° C.) before 2 μCi of ^3H 2-deoxy-glucose (Amersham, UK) were added to each well. Samples were then incubated for one hour. The medium was aspirated and wells were rinsed three times with PBS before the addition of 500 μL of 0.1N NaOH/well. After 10 minutes of agitation on a shaker, a 25 μL aliquot was removed for protein analysis, and 200 μL were transferred to a scintillation vial containing 5 mL Scintillation cocktail (Scintiverse) and counting was performed on a Beckman counter. ^3H-Glucose uptake results were expressed as CPM/μg protein.\n(§2) Concentrations used in the examples below are of pulegone in a corn oil droplet. The in vitro concentration may not be relevant to in vivo concentration because there is partitioning between the oil and the culture medium. The medium concentration of the active is not the oil droplet concentration of the active. For the pulegone to elicit its effect on the cultured cells, it must diffuse out of the corn oil into the culture medium where it is then accessible to the cells. The pulegone concentration in the culture medium is therefore considerably less than the concentration in the corn oil droplet."}, "human keratinocytes [2]": {"test_system": "human keratinocytes", "test": "Transglutaminase (TG-1) Assay", "conditions": "for TG-1/DNA % of CONTROL / TG-1/DNA (Absorbance/Arbitrary Units of DNA ± Standard Deviation): three days", "description": "as §1\nA sample of the keratinocytes grown in the keratinocyte culture described above, were placed in KGM (2 ml per well) at 0.2 million cells/plate in 6-well plates and re-grown for five days until the cells reached approximately […], since TG-1 only begins to become expressed after confluence. […] One set of triplicate wells was left untreated to serve as control. After three days of incubation, cells were washed thoroughly with phosphate buffered saline (PBS, 10 mM sodium phosphate, 138 mM sodium chloride, 2.7 mM potassium chloride, pH 7.4) and placed at −70° C. for 2 hours. Cells were then thawed for two hours. The DNA content of cells was quantified by using the DNA-binding fluorophore, bis-benzimidazole (Hoechst 33258) and measuring the specific fluorescence of the DNA-bound fluorophore (360 nm excitation, 450 nm emission). Cellular TG-1 levels were determined by using a transglutaminase-1 (TG-1) specific monoclonal antibody as the primary antibody (BC1, Amersham, UK) and a peroxidase labeled rabbit antimouse IgG as the secondary antibody (Amersham, UK). The plates were blocked at room temperature with 5% nonfat milk in Tris-buffered saline (TBS, 10 mM Tris, 150 mM NaCL, pH 8.0) for one hour followed by two hours incubation with the primary antibody (1:4000 dilution) in 1% milk/TBS at room temperature. After rinsing the plates three times with 1% milk/TBS containing 0.05% Tween 20 (Bio-Rad, Hercules, Calif.), the plates were incubated with a 1:4000 dilution of the secondary antibody at room temperature for two hours. The plates were then rinsed three times with 1% milk/0.05% Tween 20/TBS and three times with PBS. Color was developed by incubation with o-phenylene-diamine (Sigma, St. Louis, Mo.) and hydrogen peroxide (Sigma) dissolved in a 1:1 mixture of 0.2 M dibasic sodium phosphate (Sigma) and 0.1 M citric acid at pH 5.0(Sigma). Solutions were transferred to 4 mL plastic cuvets (Fisher Scientific, Pittsburgh, Pa.) and the absorbance was read at 492 nm on an Ultraspec 3000 spectrophotometer (Pharmacia, Piscataway, N.J.) and TG-1 levels were expressed as absorbence/DNA fluoroscence.\nas §2"}, "human keratinocytes [3]": {"test_system": "human keratinocytes", "test": "Lipid Analysis (ceramides expression)", "conditions": "for CERAMIDES % of CONTROL / CERAMIDES (ng/μg PROTEIN ± S.D.): three days", "description": "as §1\nA sample of the keratinocytes that were grown in the keratinocyte culture described above were placed in KGM (2 ml per well) at 0.2 million per 6-well plates and re-grown for five days until approximately 20% confluence was reached. Cells were fed and treated with pulegone as described above for the TG-1 Assay. After three days of treatment, cells were rinsed twice with PBS, then harvested by adding 3 ml of 0.1 N NaOH (Fisher) to each well and scraping with a rubber policeman. The supernatants were transferred to 16 mm×100 mm glass test tubes with teflon-coated caps and incubated for 1 hour at 70° C. After cooling to room temperature, a 50 μl aliquot was removed for protein determination (Pierce BCA assay, Rockford, Ill.). To each tube 320 μl of 1 N HCl and 2.5 ml of chloroform were added and the tubes mixed well. The tubes were then placed on a tumbler and agitated for thirty minutes. The mixtures were then centrifuged for 10 minutes at 2000×g. 2 mL of chloroform were removed from the organic phase and placed in an autosampler vial. The samples were then dried evaporated under N2, resuspended in 60 μl of chloroform:methanol 2:1 and transferred to an autosampler insert microtube which was placed inside another autosampler vial whcih was sealed. 40 μl of the sample was spotted (Camag Automatic TLC Sampler III, Wilmington, N.C.) on silica TLC plates (Whatman 4807-700) and the plates were developed in horizontal chambers (Camag) using the following solvent system: 1. 95:4.5:0.5 chloroform, methanol, acetic acid and 2. 60:40:2 hexane, ethyl ether, acetic acid. Following immersion in 10% copper sulfate in 8% phosphoric acid, plates were charred at 165° C. for 20 minutes and then read in a densitometer (Camag TLC Scanner II). The results were expressed in ng cermaides/μg protein.\nas §2"}, "[4]": {"conditions": "pulegone 1% in corn oil droplet"}, "[5]": {"conditions": "pulegone 5% in corn oil droplet"}, "[6]": {"conditions": "pulegone 2.5% in corn oil droplet"}}}
{"smiles": "CC(C)=C1CCC(C)CC1=O", "note": "(stereo not shown) [Pulegone, 5-Methyl-2-(1-methylethylidene)cyclohexanone]", "values": [{"measurement": "GLUCOSE UPTAKE % of CONTROL", "setting": "human keratinocytes [1]; [4]", "value": 77, "unit": "%"}, {"measurement": "GLUCOSE UPTAKE (cpm/μg PROTEIN ± S.D.)", "setting": "human keratinocytes [1]; [4]", "value": "3.71 ± 0.35", "unit": "cpm/μg PROTEIN"}, {"measurement": "GLUCOSE UPTAKE % of CONTROL", "setting": "human keratinocytes [1]; [5]", "value": 189, "unit": "%"}, {"measurement": "GLUCOSE UPTAKE (cpm/μg PROTEIN ± S.D.)", "setting": "human keratinocytes [1]; [5]", "value": "9.14 ± 0.69", "unit": "cpm/μg PROTEIN"}, {"measurement": "glucose uptake", "setting": "human keratinocytes [1]; pulegone in corn oil", "value": "significantly increased glucose uptake"}, {"measurement": "TG-1/DNA % of CONTROL", "setting": "human keratinocytes [2]; [4]", "value": 121, "unit": "%"}, {"measurement": "TG-1/DNA (Absorbance/Arbitrary Units of DNA ± Standard Deviation)", "setting": "human keratinocytes [2]; [4]", "value": "15.45 ± 2.32 Absorbance/Arbitrary Units of"}, {"measurement": "TG-1/DNA % of CONTROL", "setting": "human keratinocytes [2]; [6]", "value": 196, "unit": "%"}, {"measurement": "TG-1/DNA (Absorbance/Arbitrary Units of DNA ± Standard Deviation)", "setting": "human keratinocytes [2]; [6]", "value": "24.96 ± 4.85 Absorbance/Arbitrary Units of"}, {"measurement": "TG-1/DNA % of CONTROL", "setting": "human keratinocytes [2]; [5]", "value": 286, "unit": "%"}, {"measurement": "TG-1/DNA (Absorbance/Arbitrary Units of DNA ± Standard Deviation)", "setting": "human keratinocytes [2]; [5]", "value": "36.40 ± 0.89 Absorbance/Arbitrary Units of"}, {"measurement": "transglutaminase-1 expression in comparison to untreated keratinocytes", "setting": "human keratinocytes [2]; pulegone at 2.5% and 5% in corn oil", "value": "increased transglutaminase-1 expression"}, {"measurement": "CERAMIDES % of CONTROL", "setting": "human keratinocytes [3]; [4]", "value": 65, "unit": "%"}, {"measurement": "CERAMIDES (ng/μg PROTEIN ± S.D.)", "setting": "human keratinocytes [3]; [4]", "value": "8.97 ± 1.17", "unit": "ng/μg PROTEIN"}, {"measurement": "CERAMIDES % of CONTROL", "setting": "human keratinocytes [3]; [6]", "value": 171, "unit": "%"}, {"measurement": "CERAMIDES (ng/μg PROTEIN ± S.D.)", "setting": "human keratinocytes [3]; [6]", "value": "23.8 ± 11.0", "unit": "ng/μg PROTEIN"}, {"measurement": "CERAMIDES % of CONTROL", "setting": "human keratinocytes [3]; [5]", "value": 308, "unit": "%"}, {"measurement": "CERAMIDES (ng/μg PROTEIN ± S.D.)", "setting": "human keratinocytes [3]; [5]", "value": "42.8 ± 6.91", "unit": "ng/μg PROTEIN"}, {"measurement": "expression of ceramides in comparison to untreated keratinocytes", "setting": "human keratinocytes [3]; pulegone in corn oil", "value": "increased expression of ceramides"}]}
